# Earlier results, collected in US20240127967A1.
# Test system: MARV
# Settings: mouse, in vivo; cited from earlier work
compound,measurement,value
CC(C)COCC(CN(Cc1ccccc1)c1ccccc1)N1CCCC1 (stereo not shown) [Bepridil],protection of mice,strongly protected
